The CheMixHub ionic liquid set
± gives the uncertainty stated by the source.

Assay: xn = mol fraction of the nth substance listed
Settings: for electrical conductivity: frequency 3 MHz

COCCCC[n+]1ccn(C)c1.C[C@@H](O)[C@H](N)C(=O)[O-] + CS(C)=O
viscosity [mPa·s], 100 kPa
Settings	x1 = 0.0999	x1 = 0.2013	x1 = 0.3006	x1 = 0.3966	x1 = 0.5	x1 = 0.6011	x1 = 0.7007	x1 = 0.8001	x1 = 0.8946	x1 = 1
288.15 K	14.24 ± 0.12	22.21 ± 0.46	49.3 ± 0.94	102.2 ± 2.9	186.6 ± 8.6	281 ± 17	390 ± 28	560 ± 46	778 ± 73	1030 ± 110
293.15 K	12.05 ± 0.14	18.12 ± 0.21	37.45 ± 0.5	74.9 ± 1.4	132.1 ± 4.7	192 ± 9.2	264 ± 15	371 ± 26	503 ± 40	647 ± 57
298.15 K	9.53 ± 0.11	15.09 ± 0.17	30.16 ± 0.37	56.54 ± 0.71	94.4 ± 2.4	135.2 ± 4.9	181.5 ± 8.3	254 ± 14	340 ± 23	424 ± 31
303.15 K	7.91 ± 0.09	12.7 ± 0.14	24.02 ± 0.29	43.12 ± 0.58	69.4 ± 1.2	97.9 ± 2.6	131.7 ± 4.6	179.9 ± 8.2	234 ± 13	290 ± 18
308.15 K	6.67 ± 0.07	10.74 ± 0.11	19.82 ± 0.22	33.94 ± 0.43	52.97 ± 0.63	74.4 ± 1.4	98.5 ± 2.6	133 ± 4.8	168.7 ± 7.4	205 ± 10
313.15 K	5.86 ± 0.06	9.49 ± 0.09	16.58 ± 0.18	27.18 ± 0.34	39.95 ± 0.55	53.5 ± 0.7	69.5 ± 1.2	90.7 ± 2.2	108.9 ± 3.4	132.9 ± 4.9
318.15 K	5.2 ± 0.06	8.31 ± 0.07	13.95 ± 0.14	21.6 ± 0.28	31.33 ± 0.43	41.63 ± 0.58	53.64 ± 0.64	69.5 ± 1.2	80.3 ± 1.7	98.5 ± 2.7

Cn1cc[n+](CCCN)c1.F[B-](F)(F)F + CS(C)=O
101 kPa
Settings	electrical conductivity [S/m]	viscosity [mPa·s]
293.15 K, x1 = 0.2997	0.537 ± 0.01	42.06 ± 0.26
293.15 K, x1 = 0.3997	0.334 ± 0.01	58.56 ± 0.33
293.15 K, x1 = 0.5999	0.151 ± 0.01	96.13 ± 0.99
293.15 K, x1 = 0.8998	0.032 ± 0.01	161.7 ± 2.7
298.15 K, x1 = 0.1003	1.08 ± 0.011	10.17 ± 0.086
298.15 K, x1 = 1	0.026 ± 0.01	149.6 ± 2.4
303.15 K, x1 = 0.2997	0.701 ± 0.01	25.7 ± 0.17
303.15 K, x1 = 0.7001	0.151 ± 0.01	74.98 ± 0.57
303.15 K, x1 = 0.8109	0.096 ± 0.01	91.64 ± 0.89
303.15 K, x1 = 0.8998	0.062 ± 0.01	105.4 ± 1.2
308.15 K, x1 = 0.8109	0.12 ± 0.01	75.58 ± 0.57
308.15 K, x1 = 1	0.055 ± 0.01	100.2 ± 1.1
313.15 K, x1 = 0.1003	1.544 ± 0.015	5.27 ± 0.068
313.15 K, x1 = 0.5999	0.323 ± 0.01	40.83 ± 0.25
313.15 K, x1 = 0.8109	0.15 ± 0.01	62.45 ± 0.37
318.15 K, x1 = 0.3997	0.71 ± 0.01	19.73 ± 0.13
318.15 K, x1 = 0.7001	0.264 ± 0.01	42.06 ± 0.25
323.15 K, x1 = 0.4998	0.576 ± 0.01	22.1 ± 0.15
323.15 K, x1 = 1	0.124 ± 0.01	58.45 ± 0.32
328.15 K, x1 = 0.1003	2.107 ± 0.021	3.179 ± 0.063
328.15 K, x1 = 0.2	1.611 ± 0.016	6.358 ± 0.072
328.15 K, x1 = 0.3997	0.922 ± 0.01	14.21 ± 0.1
333.15 K, x1 = 0.2997	1.4 ± 0.014	8.621 ± 0.08
333.15 K, x1 = 0.3997	–	12.05 ± 0.095
338.15 K, x1 = 0.3997	1.17 ± 0.012	10.36 ± 0.087
338.15 K, x1 = 0.8109	0.381 ± 0.01	26.89 ± 0.17
338.15 K, x1 = 1	0.253 ± 0.01	36.58 ± 0.22
343.15 K, x1 = 0.1003	2.77 ± 0.028	2.166 ± 0.062
343.15 K, x1 = 0.5999	0.772 ± 0.01	15.34 ± 0.11
353.15 K, x1 = 0.3997	1.614 ± 0.016	7.134 ± 0.074

CC[n+]1ccn(C)c1.[Br-] + C[NH2+]CCC=C1c2ccccc2CCc2ccccc21.[Cl-] + O
viscosity [mPa·s], 100 kPa
Settings	288.15 K	298.15 K	308.15 K	318.15 K
x2 = 0, x1 = 0.0001802	1.141 ± 0.043	0.911 ± 0.043	0.744 ± 0.043	0.627 ± 0.042
x2 = 0, x1 = 0.0007203	1.147 ± 0.044	0.916 ± 0.043	0.748 ± 0.043	0.632 ± 0.042
x2 = 0, x1 = 0.00126	1.152 ± 0.044	0.923 ± 0.043	0.754 ± 0.043	0.639 ± 0.042

CCCC[N+](CCCC)(CCCC)CCCC.O=S(=O)([O-])O + Cc1ncc(C[n+]2csc(CCO)c2C)c(N)n1.Cl.[Cl-] + O
viscosity [mPa·s], 101 kPa
Settings	298.15 K	308.15 K	318.15 K
x2 = 0.0003644, x1 = 0.0003601	0.9075 ± 0.0091	0.7352 ± 0.0083	0.6088 ± 0.0077
x2 = 0.0003645, x1 = 9.006e-05	0.9037 ± 0.0091	0.7314 ± 0.0083	0.605 ± 0.0077
x2 = 0.000365, x1 = 0.0001801	0.905 ± 0.0091	0.7327 ± 0.0083	0.6062 ± 0.0077
x2 = 0.0003656, x1 = 0.0002701	0.9062 ± 0.0091	0.7339 ± 0.0083	0.6075 ± 0.0077
x2 = 0.0006576, x1 = 0.0001801	0.9165 ± 0.0092	0.7418 ± 0.0083	0.6142 ± 0.0077
x2 = 0.0006584, x1 = 9.003e-05	0.9153 ± 0.0092	0.7406 ± 0.0083	0.6129 ± 0.0077
x2 = 0.0006587, x1 = 0.00027	0.918 ± 0.036	0.7431 ± 0.0083	0.615 ± 0.045
x2 = 0.0006597, x1 = 0.00036	0.919 ± 0.0092	0.7443 ± 0.0083	0.6167 ± 0.0077
x2 = 0.0009539, x1 = 9.001e-05	0.9257 ± 0.0092	0.7497 ± 0.0083	0.6208 ± 0.0077
x2 = 0.0009554, x1 = 0.00018	0.93 ± 0.26	0.751 ± 0.0083	0.62 ± 0.14
x2 = 0.0009567, x1 = 0.0003599	0.9295 ± 0.0093	0.7535 ± 0.0084	0.6246 ± 0.0078
x2 = 0.0009569, x1 = 0.00027	0.9283 ± 0.0092	0.7522 ± 0.0084	0.6234 ± 0.0078
x2 = 0.001253, x1 = 8.998e-05	0.9373 ± 0.0093	0.7589 ± 0.0084	0.6288 ± 0.0078
x2 = 0.001255, x1 = 0.0001799	0.9386 ± 0.0093	0.7602 ± 0.0084	0.63 ± 0.0078
x2 = 0.001255, x1 = 0.0002699	0.9398 ± 0.0093	0.7614 ± 0.0084	0.6313 ± 0.0078
x2 = 0.001257, x1 = 0.0003598	0.9411 ± 0.0093	0.7626 ± 0.0084	0.6326 ± 0.0078
x2 = 0.001555, x1 = 8.995e-05	0.9478 ± 0.0094	0.7692 ± 0.0084	0.6355 ± 0.0078
x2 = 0.001556, x1 = 0.0001799	0.9491 ± 0.0094	0.7705 ± 0.0084	0.6368 ± 0.0078
x2 = 0.001558, x1 = 0.0002698	0.95 ± 0.24	0.7717 ± 0.0084	0.64 ± 0.13
x2 = 0.001561, x1 = 0.0003597	0.9516 ± 0.0094	0.773 ± 0.0085	0.6393 ± 0.0078
x2 = 0.001859, x1 = 8.992e-05	0.9569 ± 0.0094	0.7784 ± 0.0085	0.6425 ± 0.0078
x2 = 0.00186, x1 = 0.0001798	0.9582 ± 0.0094	0.7797 ± 0.0085	0.6438 ± 0.0078
x2 = 0.001863, x1 = 0.0002697	0.9594 ± 0.0094	0.7809 ± 0.0085	0.6451 ± 0.0079
x2 = 0.001866, x1 = 0.0003596	0.9607 ± 0.0094	0.7822 ± 0.0085	0.6464 ± 0.0079

C[NH+](C)C.O=S(=O)([N-]S(=O)(=O)C(F)(F)F)C(F)(F)F + N#CCCCC#N
101 kPa, x1 = 0.2167
Settings	viscosity [mPa·s]
288 K	15.76 ± 0.21
298 K	11.43 ± 0.15
318 K	6.747 ± 0.082
353 K	3.452 ± 0.04
